Data set [1] has as its target T1, 5HT2B (Homo sapiens, UniProt P41595). Kind of data set: Functional activity IC50 (5HT2B antagonist). Type of data set: cell-based.
Another data set can be described thus: Rat pK. Conditions: in vivo; for bioavailability: read-out: Rat pK: % F.
The next data set in a line: HLM T1/2. Conditions: human, liver microsomes. (In general: Microsomes from liver hold many membrane-bound enzymes, among them those of drug oxidation.)
For a further data set, the target named is hERG (Homo sapiens, UniProt Q12809). Kind of data set: hERG % inhibition at 1 uM.
Chain of hERG (Q12809 whole entry): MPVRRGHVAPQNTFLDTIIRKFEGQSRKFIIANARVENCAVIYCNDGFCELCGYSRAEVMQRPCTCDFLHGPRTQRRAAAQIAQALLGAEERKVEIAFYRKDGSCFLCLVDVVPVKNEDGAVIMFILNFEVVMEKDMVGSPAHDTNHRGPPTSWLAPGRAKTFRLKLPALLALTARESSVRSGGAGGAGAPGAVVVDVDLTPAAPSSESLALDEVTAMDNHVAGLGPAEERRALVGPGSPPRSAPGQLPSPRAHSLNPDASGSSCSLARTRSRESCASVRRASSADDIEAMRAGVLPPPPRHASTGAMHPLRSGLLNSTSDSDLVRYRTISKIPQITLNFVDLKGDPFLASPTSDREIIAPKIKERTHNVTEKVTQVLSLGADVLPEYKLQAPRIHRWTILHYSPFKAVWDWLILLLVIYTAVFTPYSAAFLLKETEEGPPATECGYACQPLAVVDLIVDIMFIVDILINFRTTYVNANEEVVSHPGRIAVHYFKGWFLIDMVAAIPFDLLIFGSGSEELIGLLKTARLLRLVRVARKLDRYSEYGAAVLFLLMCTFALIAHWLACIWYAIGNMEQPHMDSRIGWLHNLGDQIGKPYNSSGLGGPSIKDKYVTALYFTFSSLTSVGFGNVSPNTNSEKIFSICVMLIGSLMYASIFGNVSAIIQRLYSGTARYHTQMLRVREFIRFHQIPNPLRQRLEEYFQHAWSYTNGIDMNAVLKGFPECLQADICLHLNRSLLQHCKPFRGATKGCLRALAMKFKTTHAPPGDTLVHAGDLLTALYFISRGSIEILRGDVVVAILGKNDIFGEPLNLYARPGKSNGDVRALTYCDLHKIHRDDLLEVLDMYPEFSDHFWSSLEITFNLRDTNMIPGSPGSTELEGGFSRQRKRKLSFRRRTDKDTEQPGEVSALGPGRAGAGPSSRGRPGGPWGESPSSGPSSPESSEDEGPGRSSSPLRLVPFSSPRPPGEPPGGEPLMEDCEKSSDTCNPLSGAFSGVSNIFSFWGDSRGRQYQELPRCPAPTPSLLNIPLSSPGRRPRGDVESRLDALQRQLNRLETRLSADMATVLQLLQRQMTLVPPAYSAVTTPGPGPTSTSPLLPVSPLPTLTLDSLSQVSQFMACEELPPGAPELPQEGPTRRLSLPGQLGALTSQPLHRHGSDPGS
For the next data set, the target named is D2S (Homo sapiens, UniProt P14416). Kind of data set: D2S binding (Ki).
Chain of D2S (P14416 1-414 isoform P14416-2): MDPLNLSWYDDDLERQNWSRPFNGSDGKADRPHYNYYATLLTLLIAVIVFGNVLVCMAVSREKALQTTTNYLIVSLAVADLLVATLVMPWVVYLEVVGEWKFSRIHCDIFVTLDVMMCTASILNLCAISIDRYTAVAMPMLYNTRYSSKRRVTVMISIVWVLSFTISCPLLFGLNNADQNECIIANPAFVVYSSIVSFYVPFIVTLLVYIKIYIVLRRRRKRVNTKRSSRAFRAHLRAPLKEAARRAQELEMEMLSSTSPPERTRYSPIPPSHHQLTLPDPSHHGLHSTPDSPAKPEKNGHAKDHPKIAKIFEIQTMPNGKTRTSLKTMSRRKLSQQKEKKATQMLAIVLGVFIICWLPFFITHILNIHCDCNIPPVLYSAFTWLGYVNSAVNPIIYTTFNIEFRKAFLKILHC
Another data set relates to IP3. Kind of data set: IC50 (IP3). Format: cell-based.
Data set [2] deals with T1, 5HT2B. Kind of data set: 5HT2B binding (Ki of Biological Data Table).
Another data set in a line: % Protein Binding. Format: in vitro ADME.
The target of the next data set is T2, 5HT1A (Homo sapiens, UniProt P08908).
T2 sequence (P08908 1-422): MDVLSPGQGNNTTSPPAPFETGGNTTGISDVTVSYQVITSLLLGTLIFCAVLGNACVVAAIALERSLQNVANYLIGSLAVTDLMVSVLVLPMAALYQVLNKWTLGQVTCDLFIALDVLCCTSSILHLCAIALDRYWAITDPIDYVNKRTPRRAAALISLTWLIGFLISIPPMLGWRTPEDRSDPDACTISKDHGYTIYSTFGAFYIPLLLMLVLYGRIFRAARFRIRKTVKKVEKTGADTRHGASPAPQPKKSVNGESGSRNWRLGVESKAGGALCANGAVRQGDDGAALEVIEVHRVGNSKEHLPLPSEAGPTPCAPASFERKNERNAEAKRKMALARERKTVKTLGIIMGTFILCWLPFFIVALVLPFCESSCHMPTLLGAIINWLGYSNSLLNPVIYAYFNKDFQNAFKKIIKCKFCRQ
In words: 5HT1A binding (Ki).

The next data set can be described thus: AMES Test. Format: cell-based.
The target of a further data set is T3, D4.4 (Homo sapiens, UniProt P21917).
T3 sequence (P21917 1-419): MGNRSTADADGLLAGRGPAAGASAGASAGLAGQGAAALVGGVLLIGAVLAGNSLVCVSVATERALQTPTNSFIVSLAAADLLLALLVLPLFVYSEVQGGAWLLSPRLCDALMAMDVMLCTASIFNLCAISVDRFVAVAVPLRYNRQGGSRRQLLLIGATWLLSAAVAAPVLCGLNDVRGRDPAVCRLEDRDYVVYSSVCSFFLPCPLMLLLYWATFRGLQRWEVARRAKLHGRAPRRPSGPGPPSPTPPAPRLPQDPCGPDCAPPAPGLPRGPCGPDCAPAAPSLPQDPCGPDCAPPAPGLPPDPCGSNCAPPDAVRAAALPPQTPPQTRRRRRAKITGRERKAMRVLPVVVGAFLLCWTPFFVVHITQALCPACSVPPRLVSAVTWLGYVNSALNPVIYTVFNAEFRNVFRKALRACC
Kind of data set: D4.4 binding (Ki).

Another data set deals with T4, D4 (Homo sapiens, UniProt P21917).
T4 sequence (P21917 1-419): T3 sequence (P21917 1-419)
Kind of data set: D4 binding (Ki).

The mark [3] stands for this setting: po, read-out: Rat pK: T1/2 (po).
The mark [4] stands for this setting: iv, read-out: Rat pK: T1/2 (iv).

This note sets out measurements from patent US20110082157A1, “Piperidinylamino-Thieno [2,3-D] Pyrimidine Compounds” (priority 2004, published 2011).

The structures appear in SMILES notation. Structures can show the parent of a compound that is named as a salt. Where two headings read alike, the source gives them in different places. Bounds are passed on as bounds.

Usually IC50 stands for the point on the concentration scale where inhibition reaches its midpoint. What is called Ki is a measure of affinity in units of concentration, obtained from inhibition or displacement. As usually defined, the fraction unbound is free concentration divided by total concentration. Lower therefore signals extensive binding.

T1 sequence (P41595 whole entry, species assumed): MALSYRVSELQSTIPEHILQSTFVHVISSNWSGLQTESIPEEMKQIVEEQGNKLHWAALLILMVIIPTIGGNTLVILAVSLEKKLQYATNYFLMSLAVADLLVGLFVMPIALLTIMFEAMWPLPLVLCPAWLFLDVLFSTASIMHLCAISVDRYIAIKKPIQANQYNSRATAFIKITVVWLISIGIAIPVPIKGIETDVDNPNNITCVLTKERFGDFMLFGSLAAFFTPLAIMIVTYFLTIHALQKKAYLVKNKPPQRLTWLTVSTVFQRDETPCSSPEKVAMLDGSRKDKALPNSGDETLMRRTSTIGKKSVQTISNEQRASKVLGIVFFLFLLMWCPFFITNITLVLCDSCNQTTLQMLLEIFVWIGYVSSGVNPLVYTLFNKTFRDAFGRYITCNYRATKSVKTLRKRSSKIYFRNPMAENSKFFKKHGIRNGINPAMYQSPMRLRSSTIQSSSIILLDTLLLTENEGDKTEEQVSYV

As for `c1ccc(CN2CCC(Nc3ncnc4sc5c(c34)CCCC5)CC2)cc1` [Example B1, N-(1-benzylpiperidin-4-yl)5,6,7,8-tetrahydro-benzo[4,5]thieno[2,3-d]pyrimidin-4-amine], the IC50 against 5HT2B [1] came out at 110 nM. In addition, the half-life is 60 min in the data set “Rat pK” (setting [3]) and below 15 min in the data set “HLM T1/2”.

As to `Fc1cccc(CN2CCC(Nc3ncnc4sc5c(c34)CCCC5)CC2)c1` [Example B3, N-(1-(3-fluorobenzyl)piperidin-4-yl)5,6,7,8-tetrahydro-bcnzo[4,5]thieno[2,3-d]pyrimidin-4-amine], the IC50 against 5HT2B [1] came out at 100 nM; with IP3, 22.5 nM. For the same molecule, the “hERG (% Inhibition at 1 uM)” value on hERG is 58.5%. Moreover, affinity on D2S (NA: Not Active) was put at a Ki of 240 nM. Also, in “HLM T1/2”, the half-life is 4.3 min.

On to `c1ccc(CN2CCC(Nc3ncnc4scc(-c5ccccc5)c34)CC2)cc1` [Example B6, N-(1-benzylpiperidin-4-yl)-5-phenylthieno [2,3-d]pyrimidin-4-amine], for which, on 5HT2B [2], the “% at 10 nM (5HT2B)” value is 38%, the “% at 100 nM (5HT2B)” value is listed as 91% and the “% at 1000 nM (5HT2B)” value was 101%. The half-life in the data set “HLM T1/2” is below 15 min.

In the case of `Cc1csc2ncnc(NC3CCN(Cc4ccccc4)CC3)c12` [Example B9, N-(1-benzylpiperidin-4-yl)-5-methylthieno [2,3-d]pyrimidin-4-amine], on 5HT2B [2], the “% at 10 nM (5HT2B)” value stood at 15%, the “% at 100 nM (5HT2B)” value worked out at 62% and the “% at 1000 nM (5HT2B)” value was 97%.

With `N#Cc1cccc(CN2CCC(Nc3ncnc4sc5c(c34)CCCC5)CC2)c1` [Example B11, 3-((4-(5,6,7,8-tetrahydro-benzo[4,5]thieno[2,3-d]pyrimidin-4-ylamino)piperidin-1-yl)methyl)benzonitrile, dihydrochloride], the “hERG (% Inhibition at 1 uM)” value at hERG is “hERG (% Inhibition at 1 uM): 44.9”. For the same molecule, the “% at 1 nM (5HT2B)” value on 5HT2B [2] (1 nM) is given as 35%. Moreover, on 5HT2B [2], the “% at 10 nM (5HT2B)” value amounted to 82% and the “% at 100 nM (5HT2B)” value came to 101%. The same molecule yielded a half-life in the data set “HLM T1/2” below 15 min.

As for `CC(c1cccc(F)c1)N1CCC(Nc2ncnc3sccc23)CC1` (centres unmarked) [Example B12, N-(1-(1-(3-fluorophenyl)ethyl)piperidin-4-yl) thieno[2,3-d]pyrimidin-4-amine, dihydrochloride], the “hERG (% Inhibition at 1 uM)” value on hERG is given as “hERG (% Inhibition at 1 uM): 58.5”. Besides, on D2S (NA: Not Active), the Ki is 250 nM. Also, the half-life in the data set “HLM T1/2” amounted to 11 min.

`CC(C)Cc1cc2c(NC3CCN(C(C)c4cccc(F)c4)CC3)ncnc2s1` (centres unmarked) [Example B14, N-(1-(1-(3-fluorophenyl)ethyl)piperidin-4-yl)-6-isobutylthieno[2,3-d] pyrimidin-4-amine, dihydrochloride] registered an IC50 at 5HT2B [1] of 5300 nM. Further, on hERG, the “hERG (% Inhibition at 1 uM)” value is given as 76.1%. Also, the half-life was 30 min in the data set “Rat pK” (setting [4]), 30 min in “Rat pK” (setting [3]) and below 15 min in “HLM T1/2”. Moreover, in the data set “Rat pK” (po), the bioavailability worked out at 4%.

The molecule `CC(c1cc(F)cc(F)c1)N1CCC(Nc2ncnc3sc4c(c23)CCCC4)CC1` (centres unmarked) [Example B17, N-(1-(1-(3,5-difluorophenyl)ethyl)piperidin-4-yl)5,6,7,8-tetrahydro-benzo [4,5]thieno[2,3-d] pyrimidin-4-amine, dihydrochloride] displayed an IC50 against 5HT2B [1] of 1300 nM. This molecule also had a half-life in the data set “HLM T1/2” below 15 min.

Take `CC(C)Cc1cc2c(NC3CCN(C(C)c4cc(F)cc(F)c4)CC3)ncnc2s1` (centres unmarked) [Example B18, N-(1-(1-(3,5-difluorophenyl)ethyl)piperidin-4-yl)-6-isobutylthieno[2,3-d]pyrimidin-4-amine, dihydrochloride]: the IC50 at 5HT2B [1] is 5700 nM. Further, the “hERG (% Inhibition at 1 uM)” value on hERG turned out to be 31%. Further, the fraction unbound in “% Protein Binding” came to 0.062. Also, the half-life in the data set “Rat pK” (setting [4]) worked out at 12 min; in the data set “Rat pK” (setting [3]), 24 min; in “HLM T1/2” it was 7 min. Moreover, the bioavailability in “Rat pK” (po) is 3%.

On 5HT2B [1], `Fc1cc(F)cc(CN2CCC(Nc3ncnc4sccc34)CC2)c1` [Example B30, N-(1-(3,5-difluorobenzyl)piperidin-4-yl) thieno[2,3-d]pyrimidin-4-amine, dihydrochloride] returned an IC50 of 1600 nM. In addition, the “hERG (% Inhibition at 1 uM)” value at hERG was 62%. The bioavailability in “Rat pK” (po) turned out to be 17%. Besides, the half-life amounted to 48 min in “Rat pK” (setting [3]) and 19 min in “HLM T1/2”.

`CC(C)c1cc2c(NC3CCN(Cc4cc(F)cc(F)c4)CC3)ncnc2s1` [Example B31, N-(1-(3,5-difluorobenzyl)piperidin-4-yl)-6-isopropylthieno [2,3-d] pyrimidin-4-amine, dihydrochloride] came in with an IC50 on 5HT2B [1] of 830 nM. The bioavailability in “Rat pK” (po) came to 10%. Also, the half-life in the data set “Rat pK” (setting [3]) worked out at 30 min; in “HLM T1/2”, 8 min. This molecule had a Ki at D2S (NA: Not Active) of 230 nM.

Consider `CC(C)c1cc2c(NC3CCN(Cc4cc(F)cc(F)c4)CC3)ncnc2s1` [Example B32, N-(1-(3,5-difluorobenzyl)piperidin-4-yl)-6-isopropylthieno [2,3-d] pyrimidin-4-amine, monomaleate], for which the results for the IC50 on 5HT2B [1] and with IP3 were 450 nM and 1.53 nM, respectively.

For the molecule `Cc1c(Cl)sc2ncnc(NC3CCN(Cc4cccc(F)c4)CC3)c12.O=C(O)/C=C\C(=O)O` [Example B38, N-(1-(3-fluorobenzyl)piperidin-4-yl)-6-chloro-5-methylthieno[2,3-d]pyrimidin-4-amine, monomaleate], the IC50 is 560 nM against 5HT2B [1] and 2.27 nM with IP3. In addition, the “hERG (% Inhibition at 1 uM)” value on hERG came out at 78.1%. The molecule also came in with a fraction unbound in the data set “% Protein Binding” of 0.062. Further, the half-life in the data set “Rat pK” (setting [4]) was determined as 24 min; in “Rat pK” (setting [3]), 54 min. In addition, the bioavailability in “Rat pK” (po) came to 18.2%. At D2S (NA: Not Active), this molecule had a Ki of 170 nM.

In turn, `Clc1cc2c(NC3CCN(Cc4cccnc4)CC3)ncnc2s1` [Example B47, 6-chloro-N-(1-((pyridin-3-yl)methyl)piperidin-4-yl)thieno [2,3-d]pyrimidin-4-amine, monomaleate] yielded a Ki on D2S above 10000 nM. In the data set “HLM T1/2”, the half-life worked out at 12 min.

Turning to `Fc1ccc(-c2c(Cl)sc3ncnc(NC4CCN(Cc5cc(F)cc(F)c5)CC4)c23)cc1` [Example B48, N-(1-(3,5-difluorobenzyl)piperidin-4-yl)-6-chloro-5-(4-fluorophenyl) thieno[2,3-d]pyrimidin-4-amine, monomaleate], the Ki at D2S is 1100 nM. Moreover, the “Ki (5HT1A)” value at 5HT1A is on record as “not Active”. In “HLM T1/2”, this molecule came in with a half-life below 15 min.

`N#Cc1cc(CN2CCC(Nc3ncnc4sc(Cl)cc34)CC2)ccc1F` [Example B50, 5-((4-(6-chlorothieno [2,3-d]pyrimidin-4-ylamino)piperidin-1-yl)methyl)-2-fluorobenzonitrile, monomaleate] registered an IC50 against 5HT2B [1] of 27 nM. In addition, the “AMES Test” value in “AMES Test” is “Negative”. Moreover, the “hERG (% Inhibition at 1 uM)” value at hERG was 23.7%. The half-life was 37.2 min in the data set “Rat pK” (setting [4]), 53.4 min in the data set “Rat pK” (setting [3]) and 28 min in “HLM T1/2”. In “Rat pK” (po), the bioavailability came out at 22.6%. In addition, the Ki amounted to 670 nM at D2S (NA: Not Active), 5.4 nM at D4.4 and 100 nM at 5HT1A.

Take `CNC(=O)c1cccc(CN2CCC(Nc3ncnc4sc(Cl)cc34)CC2)c1` [Example B55, 3-((4-(6-chlorothieno [2,3-d]pyrimidin-4-ylamino)piperidin-1-yl)methyl)-N-methylbenzamide, monomaleate]: affinity at D4 was put at a Ki of 330 nM. The molecule further gave a half-life in the data set “HLM T1/2” of 34 min.

As to `O=S(=O)(c1cccc(CN2CCC(Nc3ncnc4sc(Cl)cc34)CC2)c1)C(F)(F)F` [Example B56, N-(1-(3-(trifluoromethylsulfonyl)benzyl)piperidin-4-yl)-6-chlorothieno[2,3-d] pyrimidin-4-amine, monomaleate], the Ki on D2S stood at 3100 nM; at D4 (read-out: Ki (D4)), 180 nM. In “HLM T1/2”, this molecule gave a half-life below 15 min.

Consider `CN(C)C(=O)c1cccc(CN2CCC(Nc3ncnc4sc(Cl)cc34)CC2)c1` [Example B57, 3-((4-(6-chlorothieno[2,3-d]pyrimidin-4-ylamino)piperidin-1-yl)methyl)-N,N-dimethylbenzamide, monomaleate], for which the Ki at D4 (read-out: Ki (D4)) was determined as 540 nM. For the same molecule, in “HLM T1/2”, the half-life amounted to 24 min.
